Experiment [1] concerns Serum cytokine concentration. In words: Serum cytokine protein (Multiplex MSD V-Plex) after LPS and lumateperone. Format: in vivo, mouse. As to the method:
All other reagents are obtained in the highest purity available from Sigma-Aldrich (St. Louis, MO) unless otherwise noted. […] Sigma-Aldrich, ref #0127: B8) diluted in 0.9% injectable saline while control group animals receive injections of all vehicles matching the experimental conditions. […] Tissue Collection. […] Rats are euthanized 18 hours after LPS injection for sample collection. Hippocampi from mice and rats are rapidly dissected under RNAse-free conditions and placed in 1.5 mL Eppendorf tubes. When appropriate, samples are snap frozen in liquid nitrogen prior to storage at −80° C. until further analysis. […] Multiplex Assays. […] All samples are run in duplicates or triplicates according to manufacturer instructions and analyzed with MSD Discovery Workbench software (Meso Scale Diagnostics). […] An additional experimental group receiving an injection with lumateperone alone is included as an additional control. Protein concentration is measured using the Multiplex MSD assay V-Plex technology. Results are expressed in pg/mL, except for IL-6, which is measured in ng/mL.

Experiment [2] concerns Sprague-Dawley rats. The experiment can be described thus: Home cage feeding test (HCFT). It is filed as in vivo, rat. Conditions: naïve rats, Luma 1 mg/kg IP days 1 and 3; control 6.0. The text has this: Novelty Suppressed Feeding Test (NSFT). This test measures consumption of a familiar food in a novel environment, relying on rodents' aversion to eating in a novel environment after a period of food deprivation ([…] and Dulawa, “Identifying fast-onset antidepressants using rodent models,” Mol. Psychiatry 22:656-665 (2017)). Rats are food-deprived overnight and placed in an open field (76.5×76.5×40 cm^3) with a small amount of food pellets (6 pellets total). At the time of the test, rats are exposed to the open field for the first time (novelty) and allowed to explore it for a maximum of 15 minutes under red light. The latency for the animal to approach the food pellets and take its first bite is manually scored. A home cage feeding test (HCFT) is performed afterwards to ensure latency measured in NSFT is not a matter of difference in hunger. A home cage food intake analysis evaluated the amount of food eaten (in grams) over a period of 10 minutes following the end of the entire test session.

Experiment [3] deals with Sprague-Dawley rats. In words: Novelty Induced Hypophagia (NIH). It is filed as in vivo, rat. The note with it: naïve rats, Luma 1 mg/kg IP days 1 and 3; control 65.4. As to the method:
Behavioral Evaluation. All behavioral tests are performed in the morning with adult male Sprague-Dawley rats (n=9-11 per group for the experiments with LPS, and n=13-14 per group for the naïve rats).
Novelty Induced Hypophagia (NIH). This conflict-based behavioral task assesses the impact of environmental stressors on conditioned approach response for a palatable food reward (Ramaker and Dulawa, 2017). Rats are habituated with diluted (1:3 milk/water) sweetened condensed milk which is accessible in their home cage for 1 hour each day for 3 consecutive days. Initially, animals are tested in their home cage under normal lighting. For testing after drug treatment, the latency to drink is recorded after rats are placed in a novel clean cage of the same dimensions with no bedding and under dim lighting (˜50 lux) with white paper under the cages to enhance aversion.
Basal levels of anxiety are also tested using 2 commonly used tests, NSFT and novelty induced hypophagia (NIH), in the absence of LPS. It is well documented that rodents experience increased stress levels when placed in a novel environment (Ramaker and Dulawa, 2017). These two tests exploit this feature by measuring latency to feed in food-deprived rats (NSFT), or latency to receive a reward to which they have been habituated prior to the test (NIH).

Experiment [4] deals with Hippocampal mRNA expression. In words: Hippocampal mRNA (qRT-PCR) after acute restraint stress. It is filed as in vivo, mouse. The note with it: restraint stress 2 h + Luma 3 mg/kg IP; control 0, stressed −0.138. As to the method: Quantitative Real-Time PCR. […] Heavy phase-lock gel tubes enabled separation of phases following the addition of 400 μL chloroform to the sample and centrifugation at 12,000 rpm for 10 minutes at room temperature. RNA is extracted using Qiagen Rneasy kit (Qiagen, Hilden, Germany). For cDNA synthesis, 2 μg of total RNA is used (SuperScript IV Reverse Transcriptase; ThermoFisher Scientific, Waltham, MA). The purity and concentration of RNA is measured with a Nanodrop spectrophotometer; the optical density (OD) 260/280 and OD 260/230 are within 1.8-2.3. In the hippocampus, 4 key markers of pro- and anti-inflammatory cytokines and chemokines (Il1b: ID Mm00434228_m1, Tnfa: ID Mm00443258_m1, Il6: ID Mm00446190_m1, and Il10: ID Mm01288386_ml; ThermoFisher Scientific) are initially chosen for analysis (n=5-12 per group). […] Mm00840904_m1). […] All mRNAs are measured by qRT-PCR on ABI Prism 7900HT system using TaqMan Gene Expression Assays. […] The results are shown in Table 4B as relative change in mRNA levels for each cytokine gene (Il1b, Il6, Tnfa, Il10) normalized to the control group using the Dct method: Using similar procedures as described above, serum corticosterone levels and hippocampal Cldn5 mRNA expression are measured as well (corticosterone is measured using a commercial ELISA kit).
(Real-time PCR tracks product formation cycle by cycle.)

As to `CN1CCN2c3c(cccc31)[C@@H]1CN(CCCC(=O)c3ccc(F)cc3)CC[C@@H]12` [Lumateperone, 4-((6bR,10aS)-3-methyl-2,3,6b,9,10,10a-hexahydro-1H-pyrido[3′,4′: 4,5]pyrrolo[1,2,3-de]quinoxaline-8 (7H)-yl)-1-(4-fluorophenyl)-1-butanone], the “Serum IL-1b concentration” value in experiment [1] (LPS 500 μg/kg + Luma 3 mg/kg, LPS alone 6.27) came out at 2.69 pg/mL; in experiment [1] (Luma 3 mg/kg alone, no LPS, saline only 1.32), 1.47 pg/mL. For the same compound, the “Serum IL-6 concentration” value is reported as 1.49 ng/mL in experiment [1] (LPS 500 μg/kg + Luma 3 mg/kg, LPS alone 14.52) and 0.09 ng/mL in experiment [1] (Luma 3 mg/kg alone, no LPS, saline only 0.51). Besides, the “Serum TNF-alpha concentration” value is recorded as 56.33 pg/mL in experiment [1] (LPS 500 μg/kg + Luma 3 mg/kg, LPS alone 335.3) and 9.38 pg/mL in experiment [1] (Luma 3 mg/kg alone, no LPS, saline only 14.08). For the same compound, the “Serum IL-10 concentration” value amounted to 1014.3 pg/mL in experiment [1] (LPS 500 μg/kg + Luma 3 mg/kg, LPS alone 980.4) and 48.93 pg/mL in experiment [1] (Luma 3 mg/kg alone, no LPS, saline only 24.80). Also, in experiment [2], the “Control HCFT food eaten” value came to 6.0 g. Moreover, in experiment [3], the “NIH - novel cage latency to drink” value is listed as 30.5 s. In addition, the “Hippocampal Cldn5 mRNA expression” value in experiment [4] was determined as 0.330.

For the origin of these results see patent US20250195510A1, “NOVEL METHODS” (priority 2022, published 2025).
